pIC50: −log10 of the molar value.
What was measured:
A431 cells = test: A431 Cell Growth Inhibition Test (MTT Assay); assay type: cell-based, human; details: for pIC50 / inhibition at 1 µM: Homo sapiens; for pIC50: A-431, 68 h incubation; for Growth Inhibition Ratio (%) / inhibition at 1 µM: compound 1 μM, 68 h incubation; for inhibition at 1 µM: A-431, 68 h, read-out: Growth Inhibition Ratio (%)
In short: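 Cells seeded at 2500/well in DMEM/F12 with 10% FBS, grown overnight, then exposed to compound for 68 h at 37 °C, 5% CO2. Viability by MTT (0.5 mg/ml, 4 h), DMSO-solubilised, OD 490 nm; IC50 is concentration giving 50% growth inhibition relative to controls.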

BT-474 cells = test: BT-474 Cell Growth Inhibition Test (SRB Assay); assay type: cell-based, human; details: 70 h incubation; for pIC50 / inhibition at 1 µM: Homo sapiens; for Growth Inhibition Ratio (%) / inhibition at 1 µM: compound 1 μM; for inhibition at 1 µM: BT-474, 70 h, read-out: Growth Inhibition Ratio (%)
In short: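 Human breast tumour BT-474 cells (1×10^5/ml seeding, overnight) exposed to compound 70 h at 37 °C, 5% CO2; TCA-fixed, SRB-stained, dye dissolved in 10 mM Tris and OD read at 570 nm. Inhibition ratio = (PC−n)/(PC−NC)×100%; IC50 is the concentration giving 50% inhibition, from fitted curves.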

A549 cells = test: A549 Cell Growth Inhibition Test (MTT Assay); assay type: cell-based; details: Homo sapiens, 72 h incubation
In short: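 Human lung cancer A549 cells, seeded at 2500 cells per well, were exposed to compound for 72 h at 37° C., 5% CO2. Viability by MTT (0.5 mg/ml, 3 h), DMSO-dissolved, OD at 490 nm; IC50 fitted from inhibition ratio relative to controls.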

LoVo cells = test: LoVo Cell Growth Inhibition Test (MTT Assay); assay type: cell-based; details: Homo sapiens, 72 h incubation
Method: LoVo Cell Growth Inhibition Test (MTT Assay)
1. Cell strains: LoVo (human intestinal cancer cell strains);
1. A plate (10 cm) of cells in logarithmic growth phase normally cultured was collected;
2. The culture solution was sucked out. The plate was washed with 5 ml of PBS 1-2 times;
3. PBS was sucked out. 2 ml of 0.25% pancreatin was added to infiltrate the cells for 1 min;
4. The pancreatin was sucked out. The culture plate was placed in an incubator. Digestion was carried out for about 4 min at 37° C.;
5. 4 ml of complete culture solution was added in the culture plate to stop the digestion. The cells were carefully scoured with micropipette (1 ml) to give a uniform cell suspension. The suspension was implanted into a 96-well cell culture plate by 3000-4000 cells/100 μl per well. The culture plate was incubated overnight under 5% CO2 at 37° C. In day 2, 100 μl of culture solution comprising a compound was added into each well, and further incubated for 72 h under 5% CO2 at 37° C.
6. The culture solution was sucked out;
7. 100 μl of serum-free culture solution containing 0.5 mg/ml MTT was added in each well, and incubated for 4 h;
8. The culture solution was carefully sucked out;
9. 100 μl of DMSO was added in each well and vibrated to dissolve;
10. OD values were determined at 490 nM.
1. Calculation of Relative Inhibition Ratio The inhibition ratio of a compound on cell growth=(PC−n)/(PC−NC)×100%
IC50: Concentration of a compound where inhibition ratio was 50%. IC50 values were fitted with Origin7.5.

| pIC50 (A431 cells) | pIC50 (BT-474 cells) | pIC50 (A549 cells) | pIC50 (LoVo cells) | Compound | Growth Inhibition Ratio (%) (A431 cells) | Growth Inhibition Ratio (%) (BT-474 cells) | inhibition at 1 µM (A431 cells) [%] | inhibition at 1 µM (BT-474 cells) [%] |
| --- | --- | --- | --- | --- | --- | --- | --- | --- |
| 7.17 | 6.85 | 5.90 | 5.10 | CN(C)C/C=C/C(=O)Nc1cc2c(Nc3ccc(F)c(Cl)c3)c(C#N)cnc2cc1OC1CCOC1 (stereo not shown) [Example 4, (E)-N-(4-(3-CHLORO-4-FLUOROPHENYLAMINO)-3-CYANO-7-(TETRAHYDROFURAN-3-YL-OXY)QUINOLIN-6-YL)-4-(DIMETHYLAMINO)-BUT-2-ENAMIDE] | 80 | 79 | – | – |
| 7.35 | 6.88 | 5.82 | 5.05 | CN(C)C/C=C/C(=O)Nc1cc2c(Nc3ccc(F)c(Cl)c3)c(C#N)cnc2cc1O[C@H]1CCOC1 [Example 142, (S,E)-N-(4-(3-CHLORO-4-FLUOROPHENYLAMINO)-3-CYANO-7-(TETRAHYDROFURAN-3-YL-OXY)QUINOLIN-6-YL)-4-(DIMETHYLAMINO)-BUT-2-ENAMIDE] | – | – | 75 | 89 |
| 6.87 | 8.28 | 5.77 | 5.80 | CN(C)C/C=C/C(=O)Nc1cc2c(Nc3ccc(OCc4cccc(F)c4)c(Cl)c3)c(C#N)cnc2cc1OC1CCOC1 (stereo not shown) [Example 9, (E)-N-(4-(4-(3-FLUOROBENZYLOXY)-3-CHLOROPHENYLAMINO)-3-CYANO-7-(TETRAHYDROFURAN-3-YL-OXY)QUINOLIN-6-YL)-4-(DIMETHYLAMINO)-BUT-2-ENAMIDE] | 90 | 78 | – | – |
| 7.59 | 7.48 | 5.80 | 5.06 | C#Cc1cccc(Nc2c(C#N)cnc3cc(O[C@H]4CCOC4)c(NC(=O)/C=C/CN(C)C)cc23)c1 [Example 140, (S,E)-N-(3-CYANO-4-(3-ETHYNYLPHENYLAMINO)-7-(TETRAHYDROFURAN-3-YL-OXY)QUINOLIN-6-YL)-4-(DIMETHYLAMINO)-BUT-2-ENAMIDE] | – | – | 87 | 85 |
| 6.41 | 7.49 | 5.70 | 5.70 | Cc1ccc(COc2ccc(Nc3c(C#N)cnc4cc(OC5CCOC5)c(NC(=O)/C=C/CN(C)C)cc34)cc2Cl)cc1 (stereo not shown) [Example 19, (E)-N-(4-(4-(4-METHYLBENZYLOXY)-3-CHLOROPHENYLAMINO)-3-CYANO-7-(TETRAHYDROFURAN-3-YL-OXY)QUINOLIN-6-YL)-4-(DIMETHYLAMINO)-BUT-2-ENAMIDE] | – | – | – | – |
| 7.21 | 8.19 | 5.43 | 5.72 | N#Cc1cnc2cc(O[C@H]3CCOC3)c(NC(=O)/C=C/CN3CCCCC3)cc2c1Nc1ccc(OCc2ccccn2)c(Cl)c1 [Example 151, (S,E)-N-(4-(3-CHLORO-4-(PYRIDIN-2-YL-METHOXY)PHENYLAMINO)-3-CYANO-7-(TETRAHYDROFURAN-3-YL-OXY)QUINOLIN-6-YL)-4-(PIPERIDIN-1-YL)-BUT-2-ENAMIDE] | – | – | – | 80 |

Further lines, the compound ahead of its results:

| Compound | pIC50 (A431 cells) | pIC50 (BT-474 cells) | pIC50 (A549 cells) | pIC50 (LoVo cells) | Growth Inhibition Ratio (%) (A431 cells) | Growth Inhibition Ratio (%) (BT-474 cells) | inhibition at 1 µM (A431 cells) [%] | inhibition at 1 µM (BT-474 cells) [%] |
| --- | --- | --- | --- | --- | --- | --- | --- | --- |
| CN(C)C/C=C/C(=O)Nc1cc2c(Nc3ccc(OCc4ccccc4F)c(Cl)c3)c(C#N)cnc2cc1OC1CCOC1 (stereo not shown) [Example 8, (E)-N-(4-(4-(2-FLUOROBENZYLOXY)-3-CHLOROPHENYLAMINO)-3-CYANO-7-(TETRAHYDROFURAN-3-YL-OXY)QUINOLIN-6-YL)-4-(DIMETHYLAMINO)-BUT-2-ENAMIDE] | 6.84 | – | 5.77 | 5.77 | – | – | 91 | 79 |
| CN(C)C/C=C/C(=O)Nc1cc2c(Nc3ccc(OCc4ccccc4C#N)c(Cl)c3)c(C#N)cnc2cc1OC1CCOC1 (stereo not shown) [Example 13, (E)-N-(4-(4-(2-CYANOBENZYLOXY)-3-CHLOROPHENYLAMINO)-3-CYANO-7-(TETRAHYDROFURAN-3-YL-OXY)QUINOLIN-6-YL)-4-(DIMETHYLAMINO)-BUT-2-ENAMIDE] | 6.80 | 7.96 | 5.96 | 5.70 | – | – | 89 | 75 |
| CN(C)C/C=C/C(=O)Nc1cc2c(Nc3cccc(Br)c3)c(C#N)cnc2cc1OC1CCOC1 (stereo not shown) [Example 7, (E)-N-(4-(3-BROMOPHENYLAMINO)-3-CYANO-7-(TETRAHYDROFURAN-3-YL-OXY)QUINOLIN-6-YL)-4-(DIMETHYLAMINO)-BUT-2-ENAMIDE] | 6.80 | 6.51 | 5.52 | 5.15 | – | – | – | – |
| CCN(CC)C/C=C/C(=O)Nc1cc2c(Nc3ccc(OCc4ccccn4)c(Cl)c3)c(C#N)cnc2cc1O[C@H]1CCOC1 [Example 150, (S,E)-N-(4-(3-CHLORO-4-(PYRIDIN-2-YL-METHOXY)PHENYLAMINO)-3-CYANO-7-(TETRAHYDROFURAN-3-YL-OXY)QUINOLIN-6-YL)-4-(DIETHYLAMINO)-BUT-2-ENAMIDE] | 7.57 | 8.31 | 5.42 | 5.66 | – | – | 84 | 82 |
| CN(C)C/C=C/C(=O)Nc1cc2c(Nc3ccc(OCc4ccccc4Cl)c(Cl)c3)c(C#N)cnc2cc1OC1CCOC1 (stereo not shown) [Example 10, (E)-N-(4-(4-(2-CHLOROBENZYLOXY)-3-CHLOROPHENYLAMINO)-3-CYANO-7-(TETRAHYDROFURAN-3-YL-OXY)QUINOLIN-6-YL)-4-(DIMETHYLAMINO)-BUT-2-ENAMIDE] | 6.65 | 8.00 | 5.64 | 5.70 | – | – | – | – |

Reference: patent US9187458B2, “Cyanoquinoline derivatives” (Tianjin Hemay Bio-Tech Co., LTD., priority 2010, dated 2015)
